In patent US10039729B2, “Use of kukoamine A and kukoamine B” (Tianjin Chase Sun Pharmaceutical Co., Ltd., priority 2010, dated 2018):
Like-named read-outs stand apart in the source and are kept apart here.

What was measured:
[1] = system: CpG DNA; experiment: Affinity biosensor binding with immobilized CpG DNA; conditions: for affinity with CpG DNA: 100 μM operating solution; for affinity with CpG DNA / affinity / binding with CpG DNA: 5 μl loaded; for affinity / binding with CpG DNA: 4 μM solution
From the text: Immobilization of lipid A and CpG DNA: Using Optically-Based Affinity Biosensors technology, Lipid A, the biologic active centres of LPS, and CpG DNA were respectively, immobilized on the reacting surfaces of cuvettes in an IAsys plus affinity biosensor according to the manufacturer's instructions of IAsys Affinity Sensor. The end of hydrophobic side chain of lipid A was immobilized on cuvette with hydrophobic surface, and the phosphate group (active group of lipid A) at the other end was floating and exposing to the outside, which act as target spot of binding with active constituents for disease treatment in traditional Chinese medicine. The active constituents in solution were binded to lipid A through electrostatic interaction. Biotinylated CpG DNA was immobilized on the surface of a biotin cuvette by linking to avidin, which had been coated on the surface of a biotin cuvette, and then the unlabeled group of CpG DNA was floating and exposing to the outside, which act as target spot of binding with active constituents for disease treatment in traditional Chinese medicine. The active constituents in solution were binded to CpG DNA through the electrostatic interaction and embodiment.
Detection of the aqueous herbal extract: The crude drugs of 114 traditional Chinese herbs were pulverized. 1 g of each powder was added with 10 ml distilled water, boiled at 100° C. for 1.5 h, centrifuged at 4000 rpm for 20 min, filtrated and then collected the supernatant. 5 μl of aqueous herbal extracts of each herb were used to detect their binding with lipid A or CpG DNA. Here are the steps: Binding reaction: 45 μl PBS was added in cuvette; then 5 μl samples was added in cuvette; liquid were draw-out after binding response reach a plateau; Dissociation: Cuvette was washed thrice in 50 μl PBS; liquid were draw-out after dissociation reach a plateau; Regeneration: Cuvette was washed thrice in 50 μl 0.1N HCl; liquid were draw-out after regeneration reach a plateau; Cuvette was washed thrice in 50 μl PBS; next cycle was started to detect new sample after curves back to baseline levels and smoothed. Data analysis was performed using the FASTplot software after detection finished.
2.1.1 Methods: 500 g Lycii cortex was added with 5 L distilled water, soaked for 24 h, boiled at 100 for 1 h, filtered by coarse filter paper, and centrifuged at 8000 rpm/min for 30 min, and the supernatant was collected and concentrated to 1 L under reduced pressure. The supernatant was loaded onto AB-8 Macroporous adsorption resin, and eluted with distilled water and gradient ethanol (10%, 20%, 40% and 100%) successively. The eluted fractions were separately collected, and lyophilized after concentrated under reduced pressure. Five constituents were obtained, and named CL-1 to -5 according to their elution order. CL constituents were separately dissolved in PBS to make 1.0 mg/ml solution, 5 μl of which were loaded. Their binding activity with lipid A and CpG DNA were detected according to methods of embodiment 1.
2.2.1 Methods: CL-4 lyophilization powder was diluted into ultrapure water to make 100 mg/ml solution, filtered by a 0.45 μm filter membrane, loaded onto D001 cationic exchange gel column, and eluted with distilled water, 0.3 M Na2HPO4 and 0.5 M Na2HPO4 successively. The eluted fractions were separately collected, and lyophilized after concentrated under reduced pressure. Three constituents were obtained, and named CL-4a, -4b and -4c according to their elution order. CL-4 constituents were separately dissolved in PBS to make 1.0 mg/ml solution, 5 μl of which were loaded. Their binding activity with lipid A and CpG DNA were detected according to methods of embodiment 1.
3.1 Methods: KA and KB were separately dissolved to make 100 μM operating solution; 5 μl of the solution was loaded; their binding activity with lipid A and CpG DNA were detected according to methods of embodiment 1. […]

[2] = Neutralization of LPS in vitro (TAL / kinetic turbidimetric limulus test); format: biochemical; conditions: for neutralizing activity with LPS: 1, 2 and 4 μg/ml with equal volume of LPS (2.0 ng/ml), 30 min, p<0.05 or p<0.01, dose-dependent; for IC50: LPS 2 ng/ml, 0.5-128 μM, read-out: Half inhibitory concentration (IC50) on LPS
Experimental: 2.3.1 Methods: CL-4b was dissolved into LPS-free water to make 8 μg/ml solution, and incubated with equal volume of LPS (1 ng/mL) at 37° C. for 30 min. Subsequently, 100 μl mixed solution of CL-4b and LPS was added with equal volume of the quantitative TAL reagents dissolved in LPS-free water, gently shaked to mix the contents, and reacted at 37° C. for 60 min in kinetic tube reader. The agglutination of TAL reagent induced by the existence of non-neutralized LPS was measured. The mixture of LPS and equal volume of LPS-free water act as positive control. Each group contained three repeated tubes. The result was expressed in EU/ml, the endotoxin unit of LPS. Operation was performed according to the manufacturer's instructions of EDS-99 Bacterial Endotoxin Detecting system.
4.1 Methods: KA and KB (1, 2 and 4 μg/ml) were separately mixed with equal volume of LPS (2.0 ng/ml) and pre-incubated at 37 for 30 min; LPS control group was added with equal volume of nonpyrogenic water; LPS value was detected by kinetic turbidimetric limulus test after incubation; detection of each concentration was repeated three times; LPS content was expressed by means of mean±standard deviation; operation was performed according to the manufacturer's instructions of EDS-99 Bacterial Endotoxin Detecting system.
11.1 Methods: KB and PMB were separately diluted with LPS-free water to make solutions of 0.5, 1, 2, 4, 8, 16, 32, 64 and 128 μM; according to the methods in embodiment 4, above solutions were separately mixed with equal volume of LPS (2 ng/ml), and neutralizing activity was assayed.

Compound | affinity with CpG DNA [1] | neutralizing activity with LPS [2] | affinity / binding with CpG DNA [1] | Kd ([1]; KB 0.25-4 μM, IAsys FASTfit, read-out: dissociation equilibrium constant (KD) with CpG DNA) | Kd ([1]; with CpG DNA, read-out: dissociation equilibrium constant (KD = kass/kdiss)) | IC50 [2]
O=C(CCc1ccc(O)c(O)c1)NCCCNCCCCNCCCNC(=O)CCc1ccc(O)c(O)c1 [KA, Kukoamine A] | high affinity | significant neutralizing activity |  |  |  | 
NCCCN(CCCCNCCCNC(=O)CCc1ccc(O)c(O)c1)C(=O)CCc1ccc(O)c(O)c1 [KB, Kukoamine B] | high affinity | significant neutralizing activity | high affinity | 660 nM | 664 nM | 14.9 µM
polymyxin B [PMB, reference compound] |  |  | almost has no binding effects |  |  | 4.8 µM
